According to PMC6897958, “Structural basis of ligand selectivity and disease mutations in cysteinyl leukotriene receptors” (Nature Communications, 2019):

What was measured:
CysLT2R wild type = target: T1, CysLT2R wild type (Homo sapiens, UniProt Q9NS75); test: IP1 production assay (Cisbio IP-One), HEK293 cells transfected with wild-type CysLT2R; assay type: cell-based
T1 construct: host or cells: HEK293 (ATCC CRL-1573)
Method: (§1) For CysLT2R functional assays, the initial CysLT2R wild-type gene with an N-terminal 3 × HA tag cloned into pcDNA3.1+ (Invitrogen) at EcoRI(5′) and XhoI(3′) was purchased from cDNA.org. All further gene modifications (point mutations, truncations, or partner protein fusion) were introduced by overlapping PCR. Sequences of all primers used in this work are listed in Supplementary Table 4.
The Cisbio IP-One kit was used according to the manufacturer’s instructions. […] At 48 h post transfection, the media was removed and the cells were washed with fresh Hank’s Balanced Salt Solution. […] After equilibration for 30 min at 37 °C, the cells were lysed with IP1-D2 and Ab-Crypt reagents in lysis buffer and then incubated for 1 h at RT. […] Data were plotted using the three parameters EC50/IC50 fit in GraphPad Prism 7 (San Diego, CA) and represent the mean ± s.d. of at least two independent experiments performed in quadruplicate.

CysLT2R N301^7.49D = target: T2, CysLT2R N301^7.49D (Homo sapiens, UniProt Q9NS75, N301D); test: IP1 production assay, HEK293 transfected with CysLT2R mutant; assay type: cell-based
T2 construct: expressed in transfected cells; host or cells: HEK293 (ATCC CRL-1573)
T2 sequence (Q9NS75 whole entry N301D): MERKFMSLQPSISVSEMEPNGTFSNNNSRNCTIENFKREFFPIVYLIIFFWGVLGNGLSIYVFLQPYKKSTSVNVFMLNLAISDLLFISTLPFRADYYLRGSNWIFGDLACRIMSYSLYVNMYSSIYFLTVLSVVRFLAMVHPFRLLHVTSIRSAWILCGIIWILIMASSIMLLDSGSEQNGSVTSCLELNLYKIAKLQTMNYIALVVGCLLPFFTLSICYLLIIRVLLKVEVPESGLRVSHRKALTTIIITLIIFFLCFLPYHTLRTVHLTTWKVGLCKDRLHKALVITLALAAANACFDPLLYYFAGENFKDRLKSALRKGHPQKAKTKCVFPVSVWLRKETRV
Description: as §1
(§2) The Cisbio IP-One kit was used according to the manufacturer’s instructions. HEK293 cells (ATCC CRL-1573) were seeded onto poly-L-Lysine-coated 384-well plates at 20,000 cells per well and transfected with 40 ng of DNA coding for the wild-type CysLT2R or for the CysLT2R mutants using the X-treme-Gene HP (Roche) agent. At 48 h post transfection, the media was removed and the cells were washed with fresh Hank’s Balanced Salt Solution. […] After equilibration for 30 min at 37 °C, the cells were lysed with IP1-D2 and Ab-Crypt reagents in lysis buffer and then incubated for 1 h at RT. […] Data were plotted using the three parameters EC50/IC50 fit in GraphPad Prism 7 (San Diego, CA) and represent the mean ± s.d. of at least two independent experiments performed in quadruplicate.

CysLT2R K194 ^ECL2R = target: T3, CysLT2R K194 ^ECL2R (Homo sapiens, UniProt Q9NS75, K194R); test: as above; assay type: cell-based
T3 construct: expressed in transfected cells; host or cells: HEK293 (ATCC CRL-1573)
T3 sequence (Q9NS75 whole entry K194R): as the sequence (Q9NS75 whole entry N301D) above, with K194R, D301N counted along it
Description: as §1, §2

CysLT2R H284^7.32Q = target: T4, CysLT2R H284^7.32Q (Homo sapiens, UniProt Q9NS75, H284Q); test: as above; assay type: cell-based
T4 construct: expressed in transfected cells; host or cells: HEK293 (ATCC CRL-1573)
T4 sequence (Q9NS75 whole entry H284Q): as the sequence (Q9NS75 whole entry N301D) above, with H284Q, D301N counted along it
Description: as §1, §2

CysLT2R Y127^3.41W = target: T5, CysLT2R Y127^3.41W (Homo sapiens, UniProt Q9NS75, Y127W); test: as above; assay type: cell-based
T5 construct: expressed in transfected cells; host or cells: HEK293 (ATCC CRL-1573)
T5 sequence (Q9NS75 whole entry Y127W): as the sequence (Q9NS75 whole entry N301D) above, with Y127W, D301N counted along it
Description: as §1, §2

CysLT2R K194 ^ECL2N = target: T6, CysLT2R K194 ^ECL2N (Homo sapiens, UniProt Q9NS75, K194N); test: as above; assay type: cell-based
T6 construct: expressed in transfected cells; host or cells: HEK293 (ATCC CRL-1573)
T6 sequence (Q9NS75 whole entry K194N): as the sequence (Q9NS75 whole entry N301D) above, with K194N, D301N counted along it
Description: as §1, §2

CysLT2R E310^8.48G = target: T7, CysLT2R E310^8.48G (Homo sapiens, UniProt Q9NS75, E310G); test: as above; assay type: cell-based
T7 construct: expressed in transfected cells; host or cells: HEK293 (ATCC CRL-1573)
T7 sequence (Q9NS75 whole entry E310G): as the sequence (Q9NS75 whole entry N301D) above, with D301N, E310G counted along it
Description: as §1, §2

CysLT2R F137^3.51Y = target: T8, CysLT2R F137^3.51Y (Homo sapiens, UniProt Q9NS75, F137Y); test: as above; assay type: cell-based
T8 construct: expressed in transfected cells; host or cells: HEK293 (ATCC CRL-1573)
T8 sequence (Q9NS75 whole entry F137Y): as the sequence (Q9NS75 whole entry N301D) above, with F137Y, D301N counted along it
Description: as §1, §2

CysLT2R N202^5.39H = target: T9, CysLT2R N202^5.39H (Homo sapiens, UniProt Q9NS75, N202H); test: as above; assay type: cell-based
T9 construct: expressed in transfected cells; host or cells: HEK293 (ATCC CRL-1573)
T9 sequence (Q9NS75 whole entry N202H): as the sequence (Q9NS75 whole entry N301D) above, with N202H, D301N counted along it
Description: as §1, §2

CysLT2R S169^4.56A = target: T10, CysLT2R S169^4.56A (Homo sapiens, UniProt Q9NS75, S169A); test: as above; assay type: cell-based
T10 construct: expressed in transfected cells; host or cells: HEK293 (ATCC CRL-1573)
T10 sequence (Q9NS75 whole entry S169A): as the sequence (Q9NS75 whole entry N301D) above, with S169A, D301N counted along it
Description: as §1, §2

CysLT2R I126^3.40V = target: T11, CysLT2R I126^3.40V (Homo sapiens, UniProt Q9NS75, I126V); test: as above; assay type: cell-based
T11 construct: expressed in transfected cells; host or cells: HEK293 (ATCC CRL-1573)
T11 sequence (Q9NS75 whole entry I126V): as the sequence (Q9NS75 whole entry N301D) above, with I126V, D301N counted along it
Description: as §1, §2

CysLT2R W51^1.45V = target: T12, CysLT2R W51^1.45V (Homo sapiens, UniProt Q9NS75, W51V); test: as above; assay type: cell-based
T12 construct: expressed in transfected cells; host or cells: HEK293 (ATCC CRL-1573)
T12 sequence (Q9NS75 whole entry W51V): as the sequence (Q9NS75 whole entry N301D) above, with W51V, D301N counted along it
Description: as §1, §2

CysLT2R E310^8.48A = target: T13, CysLT2R E310^8.48A (Homo sapiens, UniProt Q9NS75, E310A); test: as above; assay type: cell-based
T13 construct: expressed in transfected cells; host or cells: HEK293 (ATCC CRL-1573)
T13 sequence (Q9NS75 whole entry E310A): as the sequence (Q9NS75 whole entry N301D) above, with D301N, E310A counted along it
Description: as §1, §2

CysLT2R R267^6.55K = target: T14, CysLT2R R267^6.55K (Homo sapiens, UniProt Q9NS75, R267K); test: as above; assay type: cell-based
T14 construct: expressed in transfected cells; host or cells: HEK293 (ATCC CRL-1573)
T14 sequence (Q9NS75 whole entry R267K): as the sequence (Q9NS75 whole entry N301D) above, with R267K, D301N counted along it
Description: as §1, §2

CysLT2R L129^3.43Q = target: T15, CysLT2R L129^3.43Q (Homo sapiens, UniProt Q9NS75, L129Q); test: as above; assay type: cell-based; settings: for remaining activity at 1 µM: HEK293, Log[Antagonist] -6 M, L129Q constitutive activity, source data Supp Figure 6D; for remaining activity at 0.01 µM: HEK293, Log[Antagonist] -8 M; for remaining activity at 0.001 µM: HEK293, Log[Antagonist] -9 M; for reversal of constitutive activity (IP1 production) of L129^3.43Q: antagonist 1 µM
T15 construct: expressed in transfected cells; host or cells: HEK293 (ATCC CRL-1573)
T15 sequence (Q9NS75 1-346 L129Q): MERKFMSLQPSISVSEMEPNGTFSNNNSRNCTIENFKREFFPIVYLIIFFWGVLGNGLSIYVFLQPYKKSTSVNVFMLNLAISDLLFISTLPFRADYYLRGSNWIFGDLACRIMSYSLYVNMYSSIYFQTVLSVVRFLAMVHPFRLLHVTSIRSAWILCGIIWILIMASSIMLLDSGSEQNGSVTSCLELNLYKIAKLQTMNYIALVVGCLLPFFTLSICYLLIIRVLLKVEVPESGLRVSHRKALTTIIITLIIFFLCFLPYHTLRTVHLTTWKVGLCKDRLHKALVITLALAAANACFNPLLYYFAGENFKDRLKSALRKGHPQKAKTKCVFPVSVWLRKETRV
Description: as §1, §2

CysLT2R Y119^3.33F = target: T16, CysLT2R Y119^3.33F (Homo sapiens, UniProt Q9NS75, Y119F); test: as above; assay type: cell-based
T16 construct: expressed in transfected cells; host or cells: HEK293 (ATCC CRL-1573)
T16 sequence (Q9NS75 whole entry Y119F): as the sequence (Q9NS75 whole entry N301D) above, with Y119F, D301N counted along it
Description: as §1, §2

CysLT2R M201^5.38V = target: T17, CysLT2R M201^5.38V (Homo sapiens, UniProt Q9NS75, M201V); test: as above; assay type: cell-based
T17 construct: expressed in transfected cells; host or cells: HEK293 (ATCC CRL-1573)
T17 sequence (Q9NS75 whole entry M201V): as the sequence (Q9NS75 whole entry N301D) above, with M201V, D301N counted along it
Description: as §1, §2

CysLT2R K37^1.31R = target: T18, CysLT2R K37^1.31R (Homo sapiens, UniProt Q9NS75, K37R); test: as above; assay type: cell-based
T18 construct: expressed in transfected cells; host or cells: HEK293 (ATCC CRL-1573)
T18 sequence (Q9NS75 whole entry K37R): as the sequence (Q9NS75 whole entry N301D) above, with K37R, D301N counted along it
Description: as §1, §2

CysLT2R V135^3.49D = target: T19, CysLT2R V135^3.49D (Homo sapiens, UniProt Q9NS75, V135D); test: as above; assay type: cell-based
T19 construct: expressed in transfected cells; host or cells: HEK293 (ATCC CRL-1573)
T19 sequence (Q9NS75 whole entry V135D): as the sequence (Q9NS75 whole entry N301D) above, with V135D, D301N counted along it
Description: as §1, §2

CysLT2R F260^6.48W = target: T20, CysLT2R F260^6.48W (Homo sapiens, UniProt Q9NS75, F260W); test: as above; assay type: cell-based
T20 construct: expressed in transfected cells; host or cells: HEK293 (ATCC CRL-1573)
T20 sequence (Q9NS75 whole entry F260W): as the sequence (Q9NS75 whole entry N301D) above, with F260W, D301N counted along it
Description: as §1, §2

CysLT2R [1] = settings: Supplementary Table 3 ref ref.2; cited from earlier work
CysLT2R [2] = test: IC50 toward CysLT2R of the benzoxazine SAR series, quoted from the literature; settings: CysLT2R over CysLT1R; SAR series of ref [30]
CysLT1R = settings: Supplementary Table 3 ref ref.2; cited from earlier work
[3] = read-out: IP1 production (normalized), single replicate values
[4] = L129Q, Supp Figure 6D, read-out: IP1 production (normalized), single replicate values

T1 sequence (Q9NS75 whole entry): as the sequence (Q9NS75 whole entry N301D) above, with D301N counted along it

| IC50 (CysLT2R wild type) [nM] | IC50 (CysLT2R N301^7.49D) [nM] | IC50 (CysLT2R K194 ^ECL2R) [nM] | IC50 (CysLT2R H284^7.32Q) [nM] | IC50 (CysLT2R Y127^3.41W) [nM] | IC50 (CysLT2R K194 ^ECL2N) [nM] | IC50 (CysLT2R E310^8.48G) [nM] | IC50 (CysLT2R F137^3.51Y) [nM] | IC50 (CysLT2R N202^5.39H) [nM] | IC50 (CysLT2R S169^4.56A) [nM] | IC50 (CysLT2R I126^3.40V) [nM] | IC50 (CysLT2R W51^1.45V) [nM] | IC50 (CysLT2R E310^8.48A) [nM] | IC50 (CysLT2R R267^6.55K) [nM] | remaining activity at 1 µM (CysLT2R L129^3.43Q; [3]) [%] | remaining activity at 0.01 µM (CysLT2R L129^3.43Q; [4]) [%] | remaining activity at 0.001 µM (CysLT2R L129^3.43Q; [4]) [%] | reversal of constitutive activity (IP1 production) of L129^3.43Q (CysLT2R L129^3.43Q) | IC50 (CysLT2R Y119^3.33F) [nM] | IC50 (CysLT2R M201^5.38V) [nM] | Structure (SMILES) | further results |
| --- | --- | --- | --- | --- | --- | --- | --- | --- | --- | --- | --- | --- | --- | --- | --- | --- | --- | --- | --- | --- | --- |
| 14 ± 6 | 170 ± 70 | 60 ± 30 | 230 ± 90 | 500 ± 400 | 8 ± 4 | 2 ± 1 | 15 ± 5 | 290 ± 100 | 10 ± 4 | 20 ± 10 | 47 ± 10 | 8 ± 3 | 22 ± 9 | 76.2 | 78.3 | 74.4 | not reversed | 100 ± 40 | 30 ± 10 | O=C(O)CCCN1C[C@@H](C(=O)O)Oc2c(NC(=O)c3ccc(OCCCCc4cc(F)ccc4Cl)cc3)cccc21 [cpd 11a] | IC50 (CysLT2R K37^1.31R): 80 ± 30 nM; IC50 (CysLT2R V135^3.49D): 3 ± 3 nM; IC50 (CysLT2R F260^6.48W): 40 ± 20 nM |
| 70 ± 20 | 110 ± 50 | 40 ± 20 | 270 ± 200 | 44 ± 10 | 32 ± 10 | 7 ± 6 | 70 ± 20 | 60 ± 30 | 16 ± 10 | 14 ± 5 | 160 ± 30 | 18 ± 5 | 100 ± 30 | 80.7 | 83.3 | 87.9 | not reversed | 260 ± 100 | 60 ± 20 | O=C(O)CCCN1CC(C(=O)O)Oc2c(NC(=O)c3ccc(OCCCCOc4cccc(F)c4F)cc3F)cccc21 (centres unmarked) [cpd 11c] | remaining activity at 0.1 µM (CysLT2R L129^3.43Q; HEK293, Log[Antagonist] -7 M, L129Q, Supp Figure 6D, read-out: IP1 production (normalized), single replicate values): 85.9%; remaining activity at 0.0001 µM (CysLT2R L129^3.43Q; HEK293, Log[Antagonist] -10 M, L129Q, Supp Figure 6D, read-out: IP1 production (normalized), single replicate values): 72.7%; remaining activity at 10 pM (CysLT2R L129^3.43Q; HEK293, Log[Antagonist] -11 M, L129Q, Supp Figure 6D, read-out: IP1 production (normalized), single replicate values): 64.1%; remaining activity at 1 pM (CysLT2R L129^3.43Q; HEK293, Log[Antagonist] -12 M, L129Q, Supp Figure 6D, read-out: IP1 production (normalized), single replicate values): 68%; IC50 (CysLT2R K37^1.31R): 280 ± 100 nM; IC50 (CysLT2R V135^3.49D): 40 ± 30 nM; IC50 (CysLT2R F260^6.48W): 330 ± 100 nM |
|  |  |  |  |  |  |  |  |  |  |  |  |  |  |  |  |  |  |  |  | O=C(O)CCCN1C[C@@H](C(=O)O)Oc2c(NC(=O)c3ccc(OCCCCCc4ccccc4)cc3)cccc21 [cpd 15b] | IC50 (CysLT2R [1]): 0.62 nM; selectivity for CysLT2R (CysLT2R [2]): 200 fold; IC50 (CysLT1R): 120 nM |
